Patent US20230158071A1, “TUMOR COMBINED IMMUNOTHERAPY” (CRAGE medical Co., Limited, priority 2018, published 2023)

Assays:
[1] = tested on: cytokines Granzyme B, IFN-γ, and IL-2; assay: ELISA of cytokines in supernatant of co-cultured E0771-EGFRvIII cells and CAR-T cells; type: cell-based, mouse; details: E0771-EGFRvIII co-culture
Experimental: Olaparib pretreatment group: different concentrations of olaparib (1 μM, 5 μM) are added to the medium for culturing E0771-EGFRVIII or 4T1-EGFRvIII tumor cells respectively, culturing at 37° C. for 24 h, and then the cells are treated with trypsin and resuspended in fresh medium. The untreated mouse T cells and 806-mCD28z-CAR T cells in Example 1 are respectively taken to incubate with E0771-EGFRvIII or 4T1-EGFRVIII cells pretreated with different concentrations of olaparib at a ratio of 1:3, 1:1, and 3:1; 16 hours later, the secretion of LDH in the supernatant is detected by Cytox 96 Non-Radioactive Cytotoxicity Assay, then calculating the killing toxicity of 806-mCD28z CAR T cells to tumor cells pretreated with different concentrations of olaparib. For specific detection steps and calculation methods, see the instructions of Promaga. Cytox 96 Non-Radioactive Cytotoxicity Assay (Promaga, REF: G1782); at the same time, the secretions of cytokines Granzyme B, IFN-γ, and IL-2 in the supernatant are detected by ELISA kit (Lianke Biotech Co. Ltd. CAT: 18^.22), for specific experimental procedures, referring to instructions of MouseGranzyme B, IFN-γ, IL-2 ELISA kit from Lianke Biotech Co, Ltd.
Olaparib combined treatment group: different concentrations of olaparib (1 μM, 5 μM) are added to the medium for culturing E0771-EGFRVIII or 4T1-EGFRvIII tumor cells respectively, culturing at 37° C. for 24 h, and then the cells are treated with trypsin and resuspended in fresh medium. The untreated mouse T cells and 806-mCD28z-CAR T cells in Example 1 are respectively taken to incubate with E0771-EGFRvIII or 4T1-EGFRvIII cells treated with different concentrations of olaparib at a ratio of 1:3, 1:1, and 3:1; after corresponding concentrations of olaparib (1 μM, 5 μM) are added to treat the cells continuously for 16 hours, the secretion of LDH in the supernatant is detected by Cytox 96 Non-Radioactive Cytotoxicity Assay, then calculating the killing toxicity of 806-mCD28z CAR T cells to tumor cells pretreated with different concentrations of olaparib. […]

[2] = tested on: 4T1-EGFRvIII orthotopic breast cancer xenografts; assay: Mouse 4T1-EGFRvIII orthotopic breast cancer xenografts, olaparib and CAR-T; type: in vivo, BALB/c mice; details: olaparib 50 mg/kg i.p. with CAR-T cells
Experimental: (1) Establishment of mouse orthotopic breast cancer model and respective treatment in groups:
4T1-EGFRvIII cells in the logarithmic growth phase and growing well are collected, inoculating 5×10^5 target cells at right side position of the third pair of accessory breasts of BABL/C mice (mice with normal immune system), and the inoculating day is recorded as the first day (i.e., Day 1).
On the 10th day after tumor inoculation (i.e. Day 10), mouse T cells are taken and 806-mCD28z-CAR-T cell line is constructed as described in step 1 of this example.
On the 14th day after tumor inoculation (i.e., Day 14), the volume of the tumor reaches about 150 mm^3, and the mice are divided in groups: […]
(2) Detection of tumor volume. The tumor volume changes of mice are observed and measured continuously, and recorded three times a week. […]
(4) Detection of CAR-T copy number in tumor tissues. Tumor tissues of each group of mice are ground to extract DNA, and the sequence of retroviral vector fragment is detected by Taqman probe method to determine the DNA copy number of 806-mCD28z-CAR. […]
(6) Detection of MDSC cells in tumor tissue. The tumor tissues of mice in each group are ground, and after enzyme digestion, the changes in the proportion of MDSC cells are analyzed by flow cytometry. […]

[3] = olaparib pretreatment and combined treatment groups vs CAR-T single treatment group

With `O=C(c1cc(Cc2n[nH]c(=O)c3ccccc23)ccc1F)N1CCN(C(=O)C2CC2)CC1` [olaparib] the “level of Granzyme B in the supernatant” value [1, 3] was “do not increase significantly”, the “level of IL-2 in the supernatant” value [1, 3] was “do not increase significantly” and the “level of IFN-γ in the supernatant” value ([1]; olaparib pretreatment group and olaparib combined treatment group vs CAR-T single treatment group) was “significantly increased”. The “toxicity of combining olaparib with CAR-T cell therapy (from body weights)” value [2] was “do not cause significant toxicity”.
